Test results reported in the supplement of paper PMC10307832.

What was measured:
Assay in all cases: relative viability (nuclei count vs DMSO), 5 days (fraction); higher = more cells survive
[1] = compound: Cn1c(=O)n(-c2ccc(C(C)(C)C#N)cc2)c2c3cc(-c4cnc5ccccc5c4)ccc3ncc21 [Dactolisib] + Cc1cc(Nc2cc(N3CCN(C)CC3)nc(Sc3ccc(NC(=O)C4CC4)cc3)n2)n[nH]1 [Tozasertib] (partner 0.1 µM)
How it was run: (§1)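 Relative viability was taken as the ratio of nuclei in treated wells to nuclei in vehicle wells. Lung cancer cell lines in 1536-well plates received compounds by pin tool one day after seeding, either one drug alone or a fixed anchor-drug dose plus five library-drug doses (not always all listed) in √10 steps. Nuclei were counted on 4× images after 5 days of treatment, and values are medians of duplicate plates.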

[2] = compound: Cn1c(=O)n(-c2ccc(C(C)(C)C#N)cc2)c2c3cc(-c4cnc5ccccc5c4)ccc3ncc21 [Dactolisib] + CC(=O)c1c(C)c2cnc(Nc3ccc(N4CCNCC4)cn3)nc2n(C2CCCC2)c1=O [Palbociclib] (partner 0.5 µM)
How it was run: as §1

[3] = compound: Cn1c(=O)n(-c2ccc(C(C)(C)C#N)cc2)c2c3cc(-c4cnc5ccccc5c4)ccc3ncc21 [Dactolisib] + N=C(N)NC(=N)NCCc1ccccc1 [Phenformin] (partner 250 µM)
How it was run: as §1

[4] = compound: Cn1c(=O)n(-c2ccc(C(C)(C)C#N)cc2)c2c3cc(-c4cnc5ccccc5c4)ccc3ncc21 [Dactolisib] + Cc1nc(NC(=O)N2CCC[C@H]2C(N)=O)sc1-c1ccnc(C(C)(C)C(F)(F)F)c1 [Alpelisib] (partner 2 µM)
How it was run: as §1

Cell Line	relative viability ([1]; first compound 0.002 µM)	relative viability ([1]; first compound 0.006325 µM)	relative viability ([1]; first compound 0.02 µM)	relative viability ([1]; first compound 0.06325 µM)	relative viability ([1]; first compound 0.2 µM)	relative viability ([2]; first compound 0.002 µM)	relative viability ([2]; first compound 0.006325 µM)	relative viability ([2]; first compound 0.02 µM)	relative viability ([2]; first compound 0.06325 µM)	relative viability ([2]; first compound 0.2 µM)	relative viability ([3]; first compound 0.002 µM)	relative viability ([3]; first compound 0.006325 µM)	relative viability ([3]; first compound 0.02 µM)	relative viability ([3]; first compound 0.06325 µM)	relative viability ([3]; first compound 0.2 µM)	relative viability ([4]; first compound 0.002 µM)	relative viability ([4]; first compound 0.006325 µM)	relative viability ([4]; first compound 0.02 µM)	relative viability ([4]; first compound 0.06325 µM)	relative viability ([4]; first compound 0.2 µM)
NCI-H838	0.249	0.295	0.254	0.208	0.199	0.2	0.186	0.151	0.142	0.117	0.628	0.423	0.267	0.201	0.175	0.926	0.704	0.699	0.287	0.283
COR-L 105	0.413	0.401	0.35	0.361	0.289	0.393	0.375	0.432	0.392	0.31	0.494	0.489	0.432	0.256	0.259	1.02	0.915	1.12	0.436	0.297
NCI-H2405	0.79	0.826	0.85	0.527	0.44	0.471	0.542	0.449	0.314	0.291	0.403	0.379	0.374	0.269	0.256	0.683	0.647	0.646	0.359	0.273
NCI-H1395	0.657	0.709	0.676	0.593	0.53	0.558	0.589	0.556	0.452	0.419	0.445	0.485	0.453	0.377	0.373	0.863	0.757	1.23	0.602	0.511
NCI-H661	0.345	0.366	0.345	0.381	0.353	0.415	0.379	0.368	0.342	0.332	0.254	0.278	0.292	0.216	0.265	0.823	0.6	0.62	0.484	0.225
NCI-H1915	0.419	0.506	0.459	0.404	0.296	0.609	0.496	0.557	0.317	0.262	0.376	0.387	0.391	0.344	0.327	1.1	1.06	1.05	0.747	0.519
CAL-12T	0.288	0.296	0.241	0.163	0.121	0.526	0.396	0.256	0.172	0.133	0.672	0.567	0.508	0.236	0.192	1.53	1.13	1.2	0.205	0.206
SK-LU-1	0.324	0.307	0.302	0.245	0.176	0.335	0.393	0.337	0.268	0.281	0.273	0.491	0.414	0.259	0.185	1.03	0.94	0.779	0.363	0.276
LXF-289	0.236	0.189	0.226	0.182	0.136	0.622	0.591	0.585	0.522	0.381	0.571	0.499	0.534	0.518	0.439	1.12	0.973	1.01	0.927	0.597
NCI-H460	0.38	0.396	0.387	0.257	0.139	0.0965	0.111	0.13	0.0706	0.0375	0.506	0.474	0.508	0.142	0.0635	0.723	0.352	0.35	0.0712	0.0542
NCI-H1944	0.308	0.237	0.237	0.156	0.153	0.403	0.334	0.23	0.192	0.181	0.235	0.21	0.187	0.138	0.14	0.898	0.796	0.72	0.384	0.279
NCI-H2009	0.742	0.717	0.764	0.488	0.238	0.235	0.202	0.235	0.153	0.118	0.553	0.467	0.474	0.308	0.198	1.21	1.19	1.14	0.676	0.532
201T	0.936	0.965	0.98	0.879	0.474	0.363	0.356	0.334	0.279	0.267	0.476	0.483	0.446	0.414	0.428	1.01	0.994	0.986	0.98	0.688
NCI-H23	0.346	0.399	0.318	0.208	0.178	0.464	0.383	0.37	0.189	0.191	0.807	0.795	0.736	0.359	0.316	0.629	0.607	0.615	0.356	0.303
LOU-NH91	0.645	0.655	0.683	0.616	0.449	0.532	0.548	0.549	0.524	0.52	0.625	0.731	0.642	0.437	0.447	0.623	0.665	0.669	0.496	0.471
NCI-H2085	0.852	0.776	0.649	0.502	0.347	0.491	0.446	0.382	0.373	0.308	0.839	0.689	0.524	0.348	0.281	1.05	0.762	0.758	0.437	0.405
COR-L23	0.273	0.243	0.257	0.149	0.147	0.327	0.282	0.228	0.135	0.0957	0.508	0.417	0.429	0.229	0.159	0.8	0.646	0.419	0.199	0.149
BEN	0.525	0.553	0.53	0.49	0.42	0.479	0.477	0.473	0.458	0.426	0.231	0.263	0.245	0.248	0.237	1.01	0.89	0.808	0.47	0.277
LK-2	0.209	0.197	0.181	0.153	0.171	0.513	0.653	0.491	0.212	0.167	0.297	0.324	0.248	0.146	0.114	0.934	1.03	0.793	0.526	0.416
NCI-H322M	0.386	0.46	0.414	0.412	0.37	0.487	0.476	0.415	0.387	0.415	0.822	0.745	0.713	0.617	0.485	0.899	0.839	0.8	0.609	0.511
NCI-H520	0.425	0.468	0.365	0.196	0.218	0.206	0.178	0.163	0.153	0.117	0.529	0.534	0.369	0.202	0.217	1.11	0.657	0.753	0.263	0.194
ABC-1	0.188	0.176	0.165	0.166	0.19	0.651	0.48	0.514	0.514	0.481	0.246	0.244	0.24	0.231	0.199	1.2	1.01	0.816	0.571	0.431
NCI-H1666	0.742	0.614	0.667	0.526	0.614	0.628	0.624	0.673	0.622	0.579	0.593	0.53	0.577	0.544	0.559	1.08	0.83	0.806	0.506	0.402
NCI-H1993	0.584	0.581	0.504	0.495	0.502	0.605	0.524	0.439	0.424	0.354	0.486	0.509	0.518	0.5	0.572	0.711	0.561	0.754	0.694	0.684
NCI-H1975	0.753	0.724	0.578	0.267	0.138	0.551	0.561	0.536	0.182	0.129	0.435	0.382	0.376	0.216	0.162	0.612	0.549	0.396	0.238	0.201
HCC-44	0.826	0.899	0.855	0.341	0.297	1.04	1.02	1.01	0.99	0.919	0.274	0.203	0.171		0.166	0.907	0.722	0.601	0.337	0.3
